The record followed here is PMC8799717, “Pharmacological targeting PIKfyve and tubulin as an effective treatment strategy for double-hit lymphoma” (Cell Death Discovery, 2022).

Some targets named below: PAK6 (Homo sapiens, UniProt Q9NQU5); PIK3CA(I800L) (Homo sapiens, UniProt P42336, I800L); CDKL5 (Homo sapiens, UniProt O76039); CSNK1E (Homo sapiens, UniProt P49674); MAP3K2 (Homo sapiens, UniProt Q9Y2U5); BRSK2 (Homo sapiens, UniProt Q8IWQ3); WNK1 (Homo sapiens, UniProt Q9H4A3); SYK (Homo sapiens, UniProt P43405); EPHA3 (Homo sapiens, UniProt P29320); PRKCI (Homo sapiens, UniProt P41743); PKMYT1 (Homo sapiens, UniProt Q99640); FES (Homo sapiens, UniProt P07332); PIP5K1A (Homo sapiens, UniProt Q99755); EPHA6 (Homo sapiens, UniProt Q9UF33); TIE1 (Homo sapiens, UniProt P35590); EPHB4 (Homo sapiens, UniProt P54760); CDK2 (Homo sapiens, UniProt P24941); PDGFRB (Homo sapiens, UniProt P09619).

Assay in all cases: biochemical
Common to all, as to set-up: KINOMEscan active-site-directed competition binding panel, 468 kinases, percent of DMSO control at 1 uM
Holding throughout (settings): KINOMEscan binding, percent of DMSO control; read-out: Ctrl%

Another experiment has as its target T1, MLK1 (Homo sapiens, UniProt P80192).
T1 construct: gene MAP3K9

For experiment [1], the target named is EGFR(L747-S752del, P753S) (Homo sapiens, UniProt P00533, DEL747-752/P753S).
The target in the next experiment is T2, JNK1 (Homo sapiens, UniProt P45983).
T2 construct: gene MAPK8

In the next experiment the target is T3, TRKB (Homo sapiens, UniProt Q16620).
T3 construct: gene NTRK2

A further experiment deals with T4, CDC2L5 (Homo sapiens, UniProt Q14004).
T4 construct: gene CDK13

A further experiment concerns the target T5, CAMK1B (Homo sapiens, UniProt Q6P2M8).
T5 construct: gene PNCK

PIP5K1A, sequence (Q99755 whole entry): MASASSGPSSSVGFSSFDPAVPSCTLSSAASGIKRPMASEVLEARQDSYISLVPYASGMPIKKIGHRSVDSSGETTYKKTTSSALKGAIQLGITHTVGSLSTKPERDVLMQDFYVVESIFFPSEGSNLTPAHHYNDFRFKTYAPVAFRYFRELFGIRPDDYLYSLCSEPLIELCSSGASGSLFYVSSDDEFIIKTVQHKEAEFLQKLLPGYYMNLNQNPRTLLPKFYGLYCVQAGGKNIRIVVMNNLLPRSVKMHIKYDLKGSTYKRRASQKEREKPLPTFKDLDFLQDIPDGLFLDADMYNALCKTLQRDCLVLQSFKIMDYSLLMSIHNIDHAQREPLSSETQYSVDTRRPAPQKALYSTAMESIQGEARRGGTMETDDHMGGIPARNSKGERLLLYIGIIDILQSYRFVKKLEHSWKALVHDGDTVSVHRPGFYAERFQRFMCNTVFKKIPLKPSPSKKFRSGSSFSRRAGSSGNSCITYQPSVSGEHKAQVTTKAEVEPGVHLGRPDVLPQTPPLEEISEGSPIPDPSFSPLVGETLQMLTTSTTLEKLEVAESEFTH
FES, sequence (P07332 whole entry): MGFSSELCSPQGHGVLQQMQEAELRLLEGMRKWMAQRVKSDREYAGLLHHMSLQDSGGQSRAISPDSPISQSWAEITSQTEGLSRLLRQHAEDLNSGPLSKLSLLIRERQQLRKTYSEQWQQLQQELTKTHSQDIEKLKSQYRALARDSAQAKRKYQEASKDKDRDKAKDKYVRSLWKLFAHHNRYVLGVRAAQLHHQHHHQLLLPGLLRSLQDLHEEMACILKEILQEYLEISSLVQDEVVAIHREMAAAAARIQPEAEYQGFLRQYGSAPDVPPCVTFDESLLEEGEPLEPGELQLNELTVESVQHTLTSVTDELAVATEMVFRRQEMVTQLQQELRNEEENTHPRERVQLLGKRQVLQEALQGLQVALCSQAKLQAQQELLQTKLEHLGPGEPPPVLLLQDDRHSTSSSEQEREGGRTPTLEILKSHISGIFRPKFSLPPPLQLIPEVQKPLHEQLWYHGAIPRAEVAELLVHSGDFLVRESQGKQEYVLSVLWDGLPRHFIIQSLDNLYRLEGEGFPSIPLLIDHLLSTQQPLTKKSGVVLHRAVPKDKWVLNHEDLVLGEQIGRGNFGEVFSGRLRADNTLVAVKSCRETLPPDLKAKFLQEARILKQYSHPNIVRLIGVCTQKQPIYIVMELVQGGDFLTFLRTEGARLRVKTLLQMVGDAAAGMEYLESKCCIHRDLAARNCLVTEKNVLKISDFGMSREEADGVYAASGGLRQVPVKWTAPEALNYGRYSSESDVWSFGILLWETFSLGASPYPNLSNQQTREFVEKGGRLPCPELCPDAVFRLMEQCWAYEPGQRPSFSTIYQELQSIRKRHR
T5 sequence (Q6P2M8 whole entry): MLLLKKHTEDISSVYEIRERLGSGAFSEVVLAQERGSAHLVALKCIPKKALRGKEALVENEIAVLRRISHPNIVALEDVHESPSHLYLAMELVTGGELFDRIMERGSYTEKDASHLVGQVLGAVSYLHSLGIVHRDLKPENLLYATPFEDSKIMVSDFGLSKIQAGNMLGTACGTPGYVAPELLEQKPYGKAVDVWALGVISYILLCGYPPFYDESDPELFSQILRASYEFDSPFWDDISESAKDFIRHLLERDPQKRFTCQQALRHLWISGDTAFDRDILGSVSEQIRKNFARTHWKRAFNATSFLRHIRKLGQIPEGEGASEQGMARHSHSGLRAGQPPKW
EGFR(L747-S752del, P753S), sequence (P00533 with tags, fused parts or gaps DEL747-752/P753S): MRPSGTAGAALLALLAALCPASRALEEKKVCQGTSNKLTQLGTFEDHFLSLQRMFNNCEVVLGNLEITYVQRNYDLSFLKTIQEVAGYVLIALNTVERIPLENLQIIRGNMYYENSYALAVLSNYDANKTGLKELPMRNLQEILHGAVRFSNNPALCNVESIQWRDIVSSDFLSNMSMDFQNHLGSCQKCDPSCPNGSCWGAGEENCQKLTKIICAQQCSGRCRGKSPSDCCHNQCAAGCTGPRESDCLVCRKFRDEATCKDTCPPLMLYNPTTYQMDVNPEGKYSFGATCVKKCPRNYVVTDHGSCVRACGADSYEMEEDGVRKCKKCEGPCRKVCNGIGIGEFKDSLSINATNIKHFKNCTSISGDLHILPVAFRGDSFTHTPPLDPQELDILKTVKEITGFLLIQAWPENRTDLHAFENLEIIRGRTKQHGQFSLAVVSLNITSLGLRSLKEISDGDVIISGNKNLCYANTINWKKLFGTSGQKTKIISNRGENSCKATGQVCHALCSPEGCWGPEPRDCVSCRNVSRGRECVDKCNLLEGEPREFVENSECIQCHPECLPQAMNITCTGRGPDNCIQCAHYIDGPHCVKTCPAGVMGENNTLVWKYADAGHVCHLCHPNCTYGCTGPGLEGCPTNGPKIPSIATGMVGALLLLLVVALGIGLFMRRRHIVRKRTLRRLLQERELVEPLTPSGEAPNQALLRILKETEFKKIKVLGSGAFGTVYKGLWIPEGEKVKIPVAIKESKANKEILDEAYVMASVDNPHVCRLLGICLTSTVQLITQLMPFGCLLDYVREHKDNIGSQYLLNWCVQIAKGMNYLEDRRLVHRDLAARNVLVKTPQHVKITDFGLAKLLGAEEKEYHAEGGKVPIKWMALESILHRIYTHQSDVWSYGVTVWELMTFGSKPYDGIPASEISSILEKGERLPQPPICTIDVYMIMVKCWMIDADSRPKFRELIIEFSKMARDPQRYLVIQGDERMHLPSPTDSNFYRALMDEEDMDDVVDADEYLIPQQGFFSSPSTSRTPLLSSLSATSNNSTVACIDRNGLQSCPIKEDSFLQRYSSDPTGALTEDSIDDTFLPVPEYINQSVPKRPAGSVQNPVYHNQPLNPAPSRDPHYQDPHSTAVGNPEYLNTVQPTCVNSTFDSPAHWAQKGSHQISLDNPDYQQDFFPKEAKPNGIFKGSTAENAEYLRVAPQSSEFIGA
PRKCI, sequence (P41743 whole entry): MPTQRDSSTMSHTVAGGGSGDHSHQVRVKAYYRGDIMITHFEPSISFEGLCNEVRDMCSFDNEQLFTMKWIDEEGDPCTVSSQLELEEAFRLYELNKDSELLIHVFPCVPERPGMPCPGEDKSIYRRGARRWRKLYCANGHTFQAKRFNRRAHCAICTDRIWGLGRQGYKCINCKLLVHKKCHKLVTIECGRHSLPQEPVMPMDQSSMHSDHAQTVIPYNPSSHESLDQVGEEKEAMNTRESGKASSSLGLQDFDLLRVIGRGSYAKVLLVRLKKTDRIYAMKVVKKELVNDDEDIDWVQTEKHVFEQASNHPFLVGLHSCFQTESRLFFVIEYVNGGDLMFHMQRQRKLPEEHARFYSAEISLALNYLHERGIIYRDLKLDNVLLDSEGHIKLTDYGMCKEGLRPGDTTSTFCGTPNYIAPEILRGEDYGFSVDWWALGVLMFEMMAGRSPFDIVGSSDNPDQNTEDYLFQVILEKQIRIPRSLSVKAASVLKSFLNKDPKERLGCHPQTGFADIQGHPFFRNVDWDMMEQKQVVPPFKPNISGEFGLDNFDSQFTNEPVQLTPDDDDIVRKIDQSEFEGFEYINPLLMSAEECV
PAK6, sequence (Q9NQU5 whole entry): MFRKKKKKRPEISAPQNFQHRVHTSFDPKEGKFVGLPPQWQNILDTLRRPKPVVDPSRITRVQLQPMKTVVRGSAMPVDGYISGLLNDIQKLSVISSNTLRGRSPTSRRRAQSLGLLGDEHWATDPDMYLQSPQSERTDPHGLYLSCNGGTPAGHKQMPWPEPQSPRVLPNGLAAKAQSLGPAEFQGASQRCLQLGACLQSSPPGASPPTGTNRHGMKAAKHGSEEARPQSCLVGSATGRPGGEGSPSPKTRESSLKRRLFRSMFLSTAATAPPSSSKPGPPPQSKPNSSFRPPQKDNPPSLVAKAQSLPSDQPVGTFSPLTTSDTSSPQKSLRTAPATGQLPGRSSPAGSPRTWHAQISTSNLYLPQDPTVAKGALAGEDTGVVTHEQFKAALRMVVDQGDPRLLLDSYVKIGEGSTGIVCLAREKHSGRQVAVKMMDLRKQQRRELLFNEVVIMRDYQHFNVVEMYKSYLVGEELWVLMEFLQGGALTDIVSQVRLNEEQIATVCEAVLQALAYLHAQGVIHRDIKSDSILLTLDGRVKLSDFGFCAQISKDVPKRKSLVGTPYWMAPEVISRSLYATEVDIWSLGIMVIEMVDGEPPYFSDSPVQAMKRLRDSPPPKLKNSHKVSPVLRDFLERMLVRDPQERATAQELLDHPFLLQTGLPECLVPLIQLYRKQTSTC
PKMYT1, sequence (Q99640 whole entry): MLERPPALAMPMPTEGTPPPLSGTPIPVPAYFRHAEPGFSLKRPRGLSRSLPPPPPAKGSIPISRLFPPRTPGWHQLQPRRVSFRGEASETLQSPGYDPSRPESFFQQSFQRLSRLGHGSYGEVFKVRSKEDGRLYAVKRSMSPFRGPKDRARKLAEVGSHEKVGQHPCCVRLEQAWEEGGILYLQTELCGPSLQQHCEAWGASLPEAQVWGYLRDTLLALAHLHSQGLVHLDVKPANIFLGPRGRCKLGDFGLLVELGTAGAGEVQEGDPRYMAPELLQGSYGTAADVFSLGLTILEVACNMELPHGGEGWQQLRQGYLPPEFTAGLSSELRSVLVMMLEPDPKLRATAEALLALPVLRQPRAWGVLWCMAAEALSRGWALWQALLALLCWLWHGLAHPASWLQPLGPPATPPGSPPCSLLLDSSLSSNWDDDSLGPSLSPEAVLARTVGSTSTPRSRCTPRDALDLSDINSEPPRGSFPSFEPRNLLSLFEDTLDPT

On to `Cc1ccc(NC(=O)c2cccc(C(F)(F)F)c2)cc1Nc1cc(-c2cccnc2)nc2[nH]ccc12` [HZX-02-059], for which the remaining binding at 1 µM at PAK6 came out at 100%; on PIK3CA(I800L) it was 81%; at CDKL5, 90%; at CSNK1E it was 97%; at MLK1, 100%; at MAP3K2, 74%. Moreover, the remaining binding at 1 µM stood at 99% at BRSK2; 98% on WNK1; 80% in [1]; 100% at SYK; 27% on EPHA3; 71% on PRKCI. Besides, the remaining binding at 1 µM on JNK1 came to 84%; on PKMYT1, 96%; on FES, 100%; at PIP5K1A it was 79%; at EPHA6 it was 69%; at TIE1, 100%. Further, the remaining binding at 1 µM on EPHB4 stood at 30%; on TRKB, 100%; on CDK2 it was 96%; on CDC2L5, 100%; on PDGFRB, 3.3%; at CAMK1B it was 98%.
